In patent US20110020312A1, “METHODS FOR TREATMENT OF METABOLIC DISORDERS USING EPIMETABOLIC SHIFTERS, MULTIDIMENSIONAL INTRACELLULAR MOLECULES, OR ENVIRONMENTAL INFLUENCERS” (priority 2009, published 2011):

What was measured:
HDFa cells = test: Extracellular acidification rate (ECAR), SeaHorse XF analyzer; format: cell-based, human
From the text: (§1) Environmental influencers (e.g., MIMs or Epi-shifters) may also be identified by changes in cellular energetics. One example of the measurement of cellular energetics are the real-time measures of the consumption of molecular oxygen and/or the change in pH of the media of a cell culture. For example, the ability of a potential epi-shifter to modulate the metabolic state of a cell may be analyzed using, for example, the XF24 Analyzer (Seahorse, Inc.). This technology allows for real time detection of oxygen and pH changes in a monolayer of cells in order to evaluate the bioenergetics of a cell microenvironment. The XF24 Analyzer measures and compares the rates of oxygen consumption (OCR), which is a measure of aerobic metabolism, and extracellular acidification (ECAR), which is a measure of glycolysis, both key indicators of cellular energetics.
(§2) (SeaHorse Biosciences Inc, North Billerica, Mass.).
In this experiment, the OCR and extracellular acidification rate (ECAR) in normal cells lines were obtained in the presence and absence of CoQ10 to determine baseline values. It was observed that in its native nutrient environment, the basal OCR rates in normal cells lines are different, and are usually a function of the physiological roles of the cells in the body.
Table 51 below describes the ECAR values (mpH/min) in HDFa cells in the presence or absence of CoQ10 under normoxic and hypoxic conditions at 5.5 mM and 22 mM glucose.

PaCa-2 cells = test: as above; format: cell-based; settings: normoxia, high glucose (17 mM)
From the text: as §1, §2
In contrast to normal cells, cancer cells are phenotypically primed to use high glucose for ATP generation (enhanced glycolysis) resulting in higher ECAR (Table 53, ECAR for untreated normoxia 17 mM) at 21 mpH/min. […] The associated decrease in OCR in these cells was likely associated with increased efficiency of the mitochondrial OXPHOS.

In the case of COC1=C(OC)C(=O)C(C/C=C(\C)CC/C=C(\C)CC/C=C(\C)CC/C=C(\C)CC/C=C(\C)CC/C=C(\C)CC/C=C(\C)CC/C=C(\C)CC/C=C(\C)CCC=C(C)C)=C(C)C1=O [Q10, Coenzyme Q10], the ECAR (HDFa cells; high glucose hypoxic conditions, to value of untreated normoxic conditions) is reported as “lowering of elevated ECAR”, the ECAR values (HDFa cells; normal cells, normoxic and hypoxic, 5.5 mM and 22 mM glucose) is reported as “minimal influence” and the ECAR rates (PaCa-2 cells) is reported as “significant decrease”.
